Data published in patent US8653075B2, “Therapeutic methods employing substituted piperidines which are CCR3 antagonists” (Boehringer Ingelheim International GmbH, priority 2009, dated 2014).

Target: T1, human chemokine receptor CCR3 (Homo sapiens, UniProt P51677)
T1 construct: expressed in transfected cells; host or cells: K562 cell line (hCCR3-C1 cells), membrane preparation
T1 sequence (P51677 1-355): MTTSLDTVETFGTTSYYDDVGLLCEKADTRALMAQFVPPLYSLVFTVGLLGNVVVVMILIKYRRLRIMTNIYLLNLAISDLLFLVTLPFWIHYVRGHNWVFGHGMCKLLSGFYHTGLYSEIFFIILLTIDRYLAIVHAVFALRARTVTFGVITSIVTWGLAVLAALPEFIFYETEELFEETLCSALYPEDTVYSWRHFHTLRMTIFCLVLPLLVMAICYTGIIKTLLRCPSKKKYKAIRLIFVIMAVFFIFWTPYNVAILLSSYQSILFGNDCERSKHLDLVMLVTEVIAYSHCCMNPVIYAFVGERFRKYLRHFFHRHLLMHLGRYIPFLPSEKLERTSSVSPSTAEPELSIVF
Test: CCR3 receptor binding assay (SPA, 125I-eotaxin-1 displacement, hCCR3-C1 K562 cell membranes)
Details: human Eotaxin-1 at human CCR3-Rezeptor; for inhibition at 1 µM: 1 μM test compound, read-out: CCR3 % inh @ 1 μM; for Ki: dose range 0.1 to 10000 nM
Method: The CCR3 receptor binding test is based on a K562 cell line (leukemia myelogenic blast cells) transfected with the human chemokine receptor CCR3 (hCCR3-C1 cells). The cell membranes were prepared by disrupting the hCCR3-C1 cells by […]. The preparation was centrifuged at 400 g 4° C. for 30 min. The supernatant was transferred into fresh tubes followed by a second centrifugation at 48000 g, 4° C. for 1 h. The membranes were re-suspended in the SPA incubation buffer (25 mM HEPES, 25 mM MgCl2 6×H2O, 1 mM CaCl2 2×H2O) without bovine serum albumin and homogenized by passing through a single use needle (Terumo, 23Gx1″). The membranes were stored in aliquots at −80° C.
The CCR3 receptor binding assay was performed in a Scintillation Proximity Assay (SPA) design with the radioligand recombinant human ^125Iodine-eotaxin-1. Cell membranes of hCCR3 C1 cells were again homogenized by passing through a single use needle (Terumo, 23Gx1″) and diluted in SPA incubation buffer in suitable concentrations (0.5-10 μg protein/well) in 96 well microtiter plates (1450-514, Perkin Elmer). The SPA assay was set up in the SPA incubation buffer with a final volume of 200 μl and final concentration of 25 mM HEPES, 25 mM MgCl2 6×H2O, 1 mM CaCl2 2×H2O and 0.1% bovine serum albumin. The SPA assay mixture contained 60 μl of the membrane suspension, 80 μl of Wheat Germ Agglutinin coated PVT beads (organic scintillator, GE Healthcare, RPNQ-0001) 0.2 mg/well), 40 μl of recombinant human ^125Jodine-eotaxin-1 (Biotrend), diluted in SPA buffer to a final concentration of 30.000 dpm per well, and 20 μl of the test compound (dissolved in DMSO dilutions). The SPA assay mixture was incubated for 2 h at room temperature. Bound radioactivity was determined with a scintillation counter (Micro Beta “Trilux”, Wallac). Included were controls for total binding (no displacer added, Bo) and non-specific binding (NSB) by adding unlabelled recombinant human Eotaxin-1 (Biotrend, Cat #300-21) or a reference compound.
Determination of the affinity of a test compound was calculated by subtraction of the non-specific binding (NSB) from the total binding (Bo) or the binding in the presence of the test compound (B) at a given compound concentration. […] The Bo-NSB value was set to 0% inhibition.
% inhibition and Ki values are (human Eotaxin-1 at human CCR3-Rezeptor): […]

| SMILES | inhibition at 1 µM | Ki |
| --- | --- | --- |
| CN1C[C@H](C(=O)Nc2cc(C3CC3)nn2C)N(C2CCN(Cc3ccc(Cl)c(C(F)(F)F)c3)CC2)C1=O [Example 199] | 66% | 0.453 µM |
| CNC(=O)c1cc(NC(=O)[C@H]2CCC(=O)N2C2CCN(Cc3ccc(Cl)c(C)c3)CC2)cc(C(C)(C)C)c1 [Example 172] | 95% | 0.007 µM |
| COc1cc(OC)nc(CNC(=O)[C@@H]2CCC(=O)N2C2CCN(Cc3ccc(Cl)c(C)c3)CC2)n1 [Example 50] | 41% | 1.29 µM |
| CCS(=O)(=O)N(CC(=O)N(C)C)c1cccc(NC(=O)[C@H]2CCC(=O)N2C2CC3CCC(C2)N3Cc2ccc(Cl)c(C)c2)c1 (stereo partly drawn) [Example 79] | 91% | 0.052 µM |
| Cc1cc(CN2C3CCC2CC(N2C(=O)CC[C@@H]2C(=O)Nc2cccc(C(N)=O)c2)C3)ccc1Cl (stereo partly drawn) [Example 81] | 89% | 0.111 µM |
| Cc1cc(CN2CCC(N3C(=O)OC[C@H]3C(=O)Nc3cccc(C#N)c3)CC2)ccc1Cl [Example 116] | 93% | 0.047 µM |
| CNc1nc(-c2cccc(NC(=O)[C@@H]3CN(C)C(=O)N3C3CCN(Cc4ccc(Cl)c(C)c4)CC3)c2)no1 [Example 128] | 87% | 0.096 µM |
| CNC(=O)c1cccc(NC(=O)[C@@H]2COC(=O)N2C2CCN(Cc3ccc(Cl)c(C)c3)CC2)c1 [Example 119] | 87% | 0.081 µM |
| Cc1cc(CN2CCC(N3C(=O)N(C)C[C@@H]3C(=O)Nc3cccc(-c4cc[nH]n4)c3)CC2)ccc1Cl [Example 123] | 95% | 0.034 µM |
| Cc1cc(CN2CCC(N3C(=O)OC[C@H]3C(=O)Nc3ccc4ncsc4c3)CC2)ccc1Cl [Example 118] | 94% | 0.04 µM |
| CCCCc1cc(C(=O)N(C)C)cc(NC(=O)C2CCC(=O)N2C2CCN(Cc3ccc(Cl)c(C)c3)CC2)n1 (stereo not drawn) [Example 213] | 66% | 0.414 µM |
| CNC(=O)c1cccc(NC(=O)[C@H]2CCC(=O)N2C2CCN(Cc3ccc(Cl)cc3)CC2)c1 [Example 201] | 86% | 0.119 µM |
| CN1C[C@H](C(=O)Nc2cc(C3CC3)nn2C)N(C2CCN(Cc3ccc(Cl)c(Cl)c3)CC2)C1=O [Example 198] | 91% | 0.067 µM |
| CCOC(=O)c1cc(NC(=O)[C@H]2CCC(=O)N2C2CCN(Cc3ccc(Cl)c(C)c3)CC2)nn1C [Example 95] | 94% | 0.04 µM |
| Cc1cc(CN2CCC(N3C(=O)CC[C@@H]3C(=O)Nc3cc(C(=O)N(C)C)cc(C(C)(C)C)c3)CC2)ccc1Cl [Example 171] | 99% | 0.005 µM |
| Cc1cc(CN2C3CCC2CC(N2C(=O)CC[C@@H]2C(=O)Nc2cccc(N(CC(=O)N(C)C)S(C)(=O)=O)c2)C3)ccc1Cl (stereo partly drawn) [Example 76] | 97% | 0.037 µM |
| Cc1cc(CN2CCC(N3C(=O)CC[C@@H]3C(=O)Nc3cc(C(=O)N(C)C)cc(C(C)C)n3)CC2)ccc1Cl [Example 182] | 99% | 0.004 µM |
| Cc1cc(CN2CCC(N3C(=O)CC[C@@H]3C(=O)Nc3nc(C(C)C)c(C(=O)N(C)C)s3)CC2)ccc1Cl [Example 189] | 100% | 0.004 µM |

Next, values leading:

| inhibition at 1 µM | Ki | SMILES |
| --- | --- | --- |
| 98% | 0.007 µM | Cc1cc(CN2CCC(N3C(=O)CC[C@@H]3C(=O)Nc3cccc(N4CCCCC4)c3)CC2)ccc1Cl [Example 19] |
| 48% | 0.922 µM | Cc1cc(CN2CCC(N3C(=O)CC[C@H]3C(=O)N3CCc4ccc(F)cc4C3)CC2)ccc1Cl [Example 73] |
| 59% | 0.523 µM | COc1ccccc1C1CCCN(C(=O)[C@H]2CCC(=O)N2C2CCN(Cc3ccc(Cl)c(C)c3)CC2)C1 (stereo partly drawn) [Example 43] |
| 101% | 0.002 µM | Cc1cc(CN2CCC(N3C(=O)CC[C@@H]3C(=O)Nc3cc(C(=O)N(C)C)cc(C4CC4)n3)CC2)ccc1Cl [Example 214] |
| 95% | 0.034 µM | COc1ccc(NC(=O)[C@H]2CCC(=O)N2C2CCN(Cc3ccc(Cl)c(C)c3)CC2)cc1C(=O)N(C)C [Example 179] |
| 52% | 0.7 µM | COCC(NC(=O)C1CCC(=O)N1C1CCN(Cc2ccc(Cl)c(C)c2)CC1)c1nc2ccc(Cl)cc2[nH]1 (stereo not drawn) [Example 67] |
| 60% | 0.905 µM | CNC(=O)c1cccc(N(C)C(=O)[C@H]2CCC(=O)N2C2CCN(Cc3ccc(Cl)c(C)c3)CC2)c1 [Example 166] |
| 74% | 0.302 µM | Cc1cc(CN2CCC(N3C(=O)CC[C@H]3C(=O)N3CCc4c(F)ccc(F)c4C3)CC2)ccc1Cl [Example 57] |
| 100% | 0.004 µM | Cc1cc(CN2CCC(N3C(=O)CC[C@@H]3C(=O)Nc3cccc(C(=O)NCC4CC4)c3)CC2)ccc1Cl [Example 136] |
| 97% | 0.007 µM | CNC(=O)c1cc(NC(=O)[C@H]2CCC(=O)N2C2CCN(Cc3ccc(Cl)c(C)c3)CC2)cc(C(=O)NC)c1 [Example 7] |
| 98% | 0.016 µM | CC(=O)Nc1nc2c(s1)-c1cc(NC(=O)[C@H]3CCC(=O)N3C3CCN(Cc4ccc(Cl)c(C)c4)CC3)ccc1CC2 [Example 10] |
| 80% | 0.152 µM | COc1cc(NC(=O)[C@H]2CCC(=O)N2C2CCN(Cc3ccc(Cl)c(C)c3)CC2)ccc1N1CCCCC1=O [Example 34] |
| 66% | 0.395 µM | CCn1nccc1CNC(=O)[C@H]1CCC(=O)N1C1CCN(Cc2ccc(Cl)c(C)c2)CC1 [Example 41] |
| 90% | 0.089 µM | Cc1cc(CN2CCC(N3C(=O)CC[C@@H]3C(=O)N3CCc4cccc(Br)c4C3)CC2)ccc1Cl [Example 54] |
| 100% | 0.003 µM | Cc1cc(CN2CCC(N3C(=O)CC[C@@H]3C(=O)Nc3cccc(C(=O)N(C)C(C)C)c3)CC2)ccc1Cl [Example 133] |
| 48% | 0.875 µM | COc1ccc2c(c1)CN(C(=O)[C@@H]1CCC(=O)N1C1CCN(Cc3ccc(Cl)c(C)c3)CC1)CC2 [Example 72] |
| 95% | 0.018 µM | CNC(=O)c1cccc(NC(=O)[C@H]2CCC(=O)N2C2CCN(Cc3ccc(Cl)c(C)c3)CC2)c1 [Example 151] |
| 41% | 1.18 µM | CCCCS(=O)(=O)NC1CCCN(C(=O)[C@@H]2CCC(=O)N2C2CCN(Cc3ccc(Cl)c(C)c3)CC2)C1 (stereo partly drawn) [Example 49] |
| 95% | 0.012 µM | Cc1cc(CN2CCC(N3C(=O)CC[C@@H]3C(=O)Nc3cccc(-c4ccn(C)n4)c3)CC2)ccc1Cl [Example 9] |
|  | 0.006 µM | Cc1cc(CN2CCC(N3C(=O)CC[C@@H]3C(=O)Nc3cc(-c4c(C)noc4C)ccn3)CC2)ccc1Cl [Example 192] |
| 96% | 0.019 µM | Cc1cc(CN2CCC(N3C(=O)CC[C@@H]3C(=O)Nc3cccc(C(=O)N(C)CCO)c3)CC2)ccc1Cl [Example 159] |
| 97% | 0.029 µM | Cc1cc(CN2CCC(N3C(=O)CC[C@@H]3C(=O)Nc3cccc(-c4cnco4)c3)CC2)ccc1Cl [Example 28] |
| 97% | 0.02 µM | Cc1cc(CN2CCC(N3C(=O)CC[C@@H]3C(=O)Nc3cccc(C(=O)NCC4CCCCO4)c3)CC2)ccc1Cl (stereo partly drawn) [Example 161] |
| 98% | 0.014 µM | Cc1nnc(NC(=O)c2cccc(NC(=O)[C@H]3CCC(=O)N3C3CCN(Cc4ccc(Cl)c(C)c4)CC3)c2)s1 [Example 154] |
| 99% | 0.019 µM | Cc1cc(-c2noc(C)n2)cc(NC(=O)[C@H]2CCC(=O)N2C2CCN(Cc3ccc(Cl)c(C)c3)CC2)n1 [Example 193] |
| 100% | 0.016 µM | Cc1cc(CN2CCC(N3C(=O)CC[C@@H]3C(=O)Nc3cccc(C(=O)NC(C)(C)C)c3)CC2)ccc1Cl [Example 158] |
